This note sets out measurements from patent publication US8658383B2, “Sweet taste receptor-expressing construct, cell body expressing the same, and utilization thereof” (T. Hasegawa Co., Ltd., priority 2009, dated 2014).

Residues, ends and D or L forms follow the SMILES beside them.

The experiment deals with T1, hT1R3 (Homo sapiens, UniProt Q7RTX0).
T1 construct: The sweet taste receptor subunits T1R2 and T1R3 include an entire part of each subunit
T1 sequence (Q7RTX0 21-852): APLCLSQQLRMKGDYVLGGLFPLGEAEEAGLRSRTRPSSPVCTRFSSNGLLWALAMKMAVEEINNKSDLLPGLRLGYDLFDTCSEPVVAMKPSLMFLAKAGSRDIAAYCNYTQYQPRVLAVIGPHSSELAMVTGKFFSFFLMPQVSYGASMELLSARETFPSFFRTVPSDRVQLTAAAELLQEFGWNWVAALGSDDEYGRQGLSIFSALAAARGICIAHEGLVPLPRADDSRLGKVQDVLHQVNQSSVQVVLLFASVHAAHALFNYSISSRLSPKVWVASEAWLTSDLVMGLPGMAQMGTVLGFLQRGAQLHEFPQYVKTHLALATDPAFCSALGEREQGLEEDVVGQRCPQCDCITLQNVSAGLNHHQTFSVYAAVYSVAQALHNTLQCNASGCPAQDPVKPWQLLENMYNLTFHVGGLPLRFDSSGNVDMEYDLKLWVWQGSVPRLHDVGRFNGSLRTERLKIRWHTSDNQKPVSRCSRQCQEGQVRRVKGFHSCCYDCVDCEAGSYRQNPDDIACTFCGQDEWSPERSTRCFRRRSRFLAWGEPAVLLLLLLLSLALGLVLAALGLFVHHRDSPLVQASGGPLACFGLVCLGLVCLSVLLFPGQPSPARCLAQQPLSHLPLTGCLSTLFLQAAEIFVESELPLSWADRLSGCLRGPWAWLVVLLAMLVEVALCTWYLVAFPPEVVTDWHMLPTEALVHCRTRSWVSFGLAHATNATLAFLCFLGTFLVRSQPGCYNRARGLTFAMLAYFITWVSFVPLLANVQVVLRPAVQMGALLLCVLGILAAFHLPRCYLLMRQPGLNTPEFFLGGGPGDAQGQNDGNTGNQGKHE
Nature of the experiment: Fluorescent microscope calcium imaging (Fura-2 AM) of comparison cultured cell strain (D) expressing hT1R3 and hG16gust44 only. The experiment is classed as cell-based. The note with it: Aspartame final concentration 10 mM, FIG. 11. The method, then:
Each of the cultured cell strains (A) to (C) prepared in Example 4 was loaded with a fluorescent calcium indicator Fura-2 AM, and cells were prepared to take them in. Cells loaded with Fura-2 AM were excited at 340 nm and 380 nm, and a fluorescent image observed at 510 nm was taken using a fluorescent microscope and a CCD camera. While the image was taken, Aspartame at a final concentration of 10 mM was administered to cells and, thereafter, the image was continuously taken. From the field of the taken image, 100 cells were randomly selected, and the response cell number was counted.
As comparison, using an expression construct consisting of pcDNA5/FRT having a sequence in which a cDNA encoding hT1R3 and a cDNA encoding hG16gust44 are connected downstream of a CMV promoter, so that an IRES sequence is flanked by those cDNAs (FIG. 10), a cultured cell strain (D) was prepared similarly as in Example 4, and the response cell number was subjected to counting as described above.

As to `COC(=O)[C@H](Cc1ccccc1)NC(=O)[C@@H](N)CC(=O)O` [aspartame] (H-Asp-Phe-OMe), the “cell response (response cell number of 100 randomly selected cells)” value is reported as “cell response was not observed”.
